The values below come from ChEMBL document CHEMBL1671654, “In vivo activity of the pyrrolopyrazolyl-substituted oxazolidinone RWJ-416457” (Antimicrob Agents Chemother, 2009).

For data set [1], the system named is Staphylococcus aureus. As to the kind of experiment: Antibacterial activity against methicillin-susceptible Staphylococcus aureus ATCC 13709 infected in sc dosed Swiss Webster mouse administered at 1 to 3 hrs post infection measured after 3 days. It is filed as functional. The settings on record: ATCC 13709, sc.
The subject of data set [2] is Staphylococcus aureus. Nature of the data set: Bacteriostatic activity against methicillin-susceptible Staphylococcus aureus Smith ATCC 13709 infected in SKH1 mouse upto 25 mg/kg/day, sc administered post infection measured after 48 hrs. In kind it is functional, organism-based.
For data set [3], the system named is Staphylococcus aureus. As to the kind of experiment: Antibacterial activity against community-associated methicillin-resistant Staphylococcus aureus OC8525 infected in sc dosed Swiss Webster mouse administered at 1 to 3 hrs post infection measured after 3 days. In kind it is functional.
In data set [4] the test system is Staphylococcus aureus. As to the kind of experiment: Antibacterial activity against community-associated methicillin-resistant Staphylococcus aureus OC8525 infected in SKH1 mouse assessed as log reduction in CFU/g skin up to 25 mg/kg/day, sc administered post infection measured after 48 hrs. It is filed as functional, organism-based.
For data set [5], the system named is Staphylococcus aureus. Nature of the data set: Antibacterial activity against methicillin-susceptible Staphylococcus aureus ATCC 13709 infected in iv dosed Swiss Webster mouse administered at 1 to 3 hrs post infection measured after 3 days. In kind it is functional. Particulars: ATCC 13709, iv.
Data set [6] deals with Staphylococcus aureus. As to the kind of experiment: Antibacterial activity against community-associated methicillin-resistant Staphylococcus aureus OC8525 infected in iv dosed Swiss Webster mouse administered at 1 to 3 hrs post infection measured after 3 days. In kind it is functional.
Data set [7] in a line: Half life in CF-1 mouse at 10 mg/kg, sc. On the set-up: dose 10 mg/kg, route subcutaneous. It is filed as ADME, organism-based. The settings on record: in vivo.
Data set [8] in a line: Cmax in CF-1 mouse at 10 mg/kg, po. On the set-up: dose 10 mg/kg, route oral. In kind it is ADME, organism-based. Particulars: in vivo.
Data set [9] deals with Mus musculus. Nature of the data set: fCmax in CF-1 mouse at 10 mg/kg, po. The settings on record: in vivo. On the set-up: dose 10 mg/kg, route oral. It is filed as ADME, organism-based.
Data set [10] relates to Mus musculus. Nature of the data set: fCmax in CF-1 mouse at 10 mg/kg, sc. In kind it is ADME, organism-based. On the set-up: dose 10 mg/kg, route subcutaneous. The settings on record: in vivo.
The subject of data set [11] is Staphylococcus aureus. Nature of the data set: Bacteriostatic activity against methicillin-susceptible Staphylococcus aureus Smith ATCC 13709 infected in SKH1 mouse upto 320 mg/kg/day, po administered post infection measured after 48 hrs. It is filed as functional, organism-based.
Data set [12] is described as follows: Ratio of fAUC (24 hrs) for community-associated methicillin-resistant Staphylococcus aureus OC8525 infected po dosed mouse to MIC for community-associated methicillin-resistant Staphylococcus aureus OC8525. In kind it is functional.
Data set [13] is described as follows: Cmax in CF-1 mouse at 2 mg/kg, iv. In kind it is ADME, organism-based. On the set-up: dose 2 mg/kg, route intravenous. Particulars: in vivo.
The nature of data set [14]: Tmax in CF-1 mouse serum at 10 mg/kg, sc. In kind it is ADME, organism-based. On the set-up: dose 10 mg/kg, route subcutaneous.
The subject of data set [15] is Streptococcus pneumoniae. As to the kind of experiment: Antibacterial activity against penicillin-susceptible Streptococcus pneumoniae ATCC 6301 infected in po dosed CF-1 mouse administered at 24 hrs post infection measured after 48 hrs relative to Linezolid. The settings on record: Streptococcus pneumoniae, ATCC 6301, po. It is filed as functional.
For data set [16], the system named is Streptococcus pneumoniae. As to the kind of experiment: Antibacterial activity against penicillin-susceptible Streptococcus pneumoniae ATCC 6301 infected in sc dosed Swiss Webster mouse administered at 1 to 3 hrs post infection measured after 3 days. It is filed as functional. Particulars: ATCC 6301, sc.
Data set [17] in a line: Apparent oral clearance in CF-1 mouse at 10 mg/kg, sc. In kind it is ADME, organism-based. On the set-up: dose 10 mg/kg, route oral. Particulars: in vivo.
The nature of data set [18]: Cmax in CF-1 mouse at 10 mg/kg, sc. In kind it is ADME, organism-based. On the set-up: dose 10 mg/kg, route subcutaneous. The settings on record: in vivo.
Data set [19] is described as follows: Ratio of fAUC (24 hrs) for penicillin-susceptible Streptococcus pneumoniae ATCC 6301 infected sc dosed mouse to MIC for penicillin-susceptible Streptococcus pneumoniae ATCC 6301. It is filed as functional.
Data set [20] relates to Mus musculus. Nature of the data set: fAUC (0 to 24 hrs) in CF-1 mouse at 10 mg/kg, po. In kind it is ADME, organism-based. On the set-up: dose 10 mg/kg, route oral. Particulars: in vivo.
The nature of data set [21]: Ratio of fAUC (24 hrs) for penicillin-susceptible Streptococcus pneumoniae ATCC 6301 infected iv dosed mouse to MIC for penicillin-susceptible Streptococcus pneumoniae ATCC 6301. In kind it is functional.
In data set [22] the test system is Staphylococcus aureus. Nature of the data set: Antibacterial activity against community-associated methicillin-resistant Staphylococcus aureus OC8525 infected in po dosed Swiss Webster mouse administered at 1 to 3 hrs post infection measured after 3 days. It is filed as functional.
Data set [23] in a line: Ratio of fAUC (24 hrs) for community-associated methicillin-resistant Staphylococcus aureus OC8525 infected sc dosed mouse to MIC for community-associated methicillin-resistant Staphylococcus aureus OC8525. It is filed as functional.
A short description of data set [24]: Ratio of fAUC (24 hrs) for Methicillin-susceptible Staphylococcus aureus ATCC 13709 infected iv dosed mouse to MIC for Methicillin-susceptible Staphylococcus aureus ATCC 1370. In kind it is functional.
A short description of data set [25]: Ratio of fAUC (24 hrs) for Methicillin-susceptible Staphylococcus aureus ATCC 13709 infected po dosed mouse to MIC for Methicillin-susceptible Staphylococcus aureus ATCC 1370. In kind it is functional.
Data set [26] relates to Streptococcus pneumoniae. As to the kind of experiment: Antibacterial activity against penicillin-susceptible Streptococcus pneumoniae ATCC 6301 infected in po dosed Swiss Webster mouse administered at 1 to 3 hrs post infection measured after 3 days. In kind it is functional. Particulars: ATCC 6301, po.
A short description of data set [27]: Tmax in CF-1 mouse serum at 10 mg/kg, po. On the set-up: dose 10 mg/kg, route oral. In kind it is ADME, organism-based.
Data set [28] is described as follows: AUC (0 to 24 hrs) in CF-1 mouse at 10 mg/kg, sc. In kind it is ADME, organism-based. The settings on record: plasma. On the set-up: time < 24 hr, dose 10 mg/kg, route subcutaneous.
Data set [29] can be described thus: Apparent oral clearance in CF-1 mouse at 10 mg/kg, po. In kind it is ADME, organism-based. On the set-up: dose 10 mg/kg, route oral. The settings on record: in vivo.
Data set [30] is described as follows: AUC (0 to 24 hrs) in CF-1 mouse at 2 mg/kg, iv. It is filed as ADME, organism-based. On the set-up: time < 24 hr, dose 2 mg/kg, route intravenous. Particulars: plasma.
A short description of data set [31]: Half life in CF-1 mouse at 10 mg/kg, po. In kind it is ADME, organism-based. On the set-up: dose 10 mg/kg, route oral. The settings on record: in vivo.
Data set [32] in a line: Ratio of fAUC (24 hrs) for community-associated methicillin-resistant Staphylococcus aureus OC8525 infected iv dosed mouse to MIC for community-associated methicillin-resistant Staphylococcus aureus OC8525. It is filed as functional.
A short description of data set [33]: Half life in CF-1 mouse at 2 mg/kg, iv. It is filed as ADME, organism-based. On the set-up: dose 2 mg/kg, route intravenous. The settings on record: in vivo.
Data set [34] has as its system Streptococcus pneumoniae. As to the kind of experiment: Antibacterial activity against penicillin-susceptible Streptococcus pneumoniae ATCC 6301 infected in iv dosed Swiss Webster mouse administered at 1 to 3 hrs post infection measured after 3 days. It is filed as functional. The settings on record: ATCC 6301, iv.
Data set [35] relates to Staphylococcus aureus. Nature of the data set: Antibacterial activity against methicillin-susceptible Staphylococcus aureus ATCC 13709 infected in po dosed Swiss Webster mouse administered at 1 to 3 hrs post infection measured after 3 days. In kind it is functional. Particulars: ATCC 13709, po.
The test system of data set [36] is Mus musculus. Nature of the data set: fAUC (0 to 24 hrs) in CF-1 mouse at 10 mg/kg, sc. It is filed as ADME, organism-based. On the set-up: dose 10 mg/kg, route subcutaneous. Particulars: in vivo.
Data set [37] is described as follows: Ratio of fAUC (24 hrs) for penicillin-susceptible Streptococcus pneumoniae ATCC 6301 infected po dosed mouse to MIC for penicillin-susceptible Streptococcus pneumoniae ATCC 6301. In kind it is functional.
A short description of data set [38]: Ratio of fAUC (24 hrs) for Methicillin-susceptible Staphylococcus aureus ATCC 13709 infected sc dosed mouse to MIC for Methicillin-susceptible Staphylococcus aureus ATCC 1370. In kind it is functional.
For data set [39], the system named is Mus musculus. Nature of the data set: fAUC (0 to 24 hrs) in CF-1 mouse at 2 mg/kg, iv. On the set-up: dose 2 mg/kg, route intravenous. Particulars: in vivo. In kind it is ADME, organism-based.
Data set [40] is described as follows: Clearance in CF-1 mouse at 2 mg/kg, iv. It is filed as ADME, organism-based. On the set-up: dose 2 mg/kg, route intravenous. Particulars: in vivo.
Data set [41] can be described thus: AUC (0 to 24 hrs) in CF-1 mouse at 10 mg/kg, po. In kind it is ADME, organism-based. On the set-up: time < 24 hr, dose 10 mg/kg, route oral. The settings on record: plasma.
The subject of data set [42] is Mus musculus. As to the kind of experiment: fCmax in CF-1 mouse at 2 mg/kg, iv. It is filed as ADME, organism-based. On the set-up: dose 2 mg/kg, route intravenous. The settings on record: in vivo.

Each structure is given as a SMILES string. Active and inactive are the calls of the source. The rule behind the calls is not given here. A value given as a limit tells only on which side of the number the result lay.

The ED50 is the dose at which the effect has come halfway, by size or by number of responders. A higher ED50 goes with a need for a large dose. As a reminder, the half-life is how long it takes for the measured level to halve. Low readings indicate fast loss, high ones slow loss. For orientation: Cmax means the maximum level reached in the sampled fluid or tissue. The Tmax is the time at which the peak concentration occurs. What is called CL/F is the apparent clearance, not corrected for the fraction that reaches the circulation. Usually AUC(0-t) stands for exposure summed from dosing to a finite time, without extrapolation to infinity. A word on the clearance: it is a measure of how efficiently the substance is removed, as volume per time. Higher therefore signals a high capacity for elimination.

Consider `CN[C@H](CC(C)C)C(=O)N[C@H]1C(=O)N[C@@H](CC(N)=O)C(=O)N[C@H]2C(=O)N[C@H]3C(=O)N[C@H](C(=O)N[C@H](C(=O)O)c4cc(O)cc(O)c4-c4cc3ccc4O)[C@H](O)c3ccc(c(Cl)c3)Oc3cc2cc(c3O[C@@H]2O[C@H](CO)[C@@H](O)[C@H](O)[C@H]2O[C@H]2C[C@](C)(N)[C@H](O)[C@H](C)O2)Oc2ccc(cc2Cl)[C@H]1O` [VANCOMYCIN], for which the ED50 in data set [1] worked out at 1.7 mg/kg/day; in [3], 12 mg/kg/day; in data set [5] it was 0.9 mg/kg/day; in [6] it was 5.6 mg/kg/day. Moreover, in [2], the outcome was Active. In addition, in data set [4], the result was inactive.

Turning to `CC(=O)NC[C@H]1CN(c2ccc(N3CCOCC3)c(F)c2)C(=O)O1` [LINEZOLID], the half-life in data set [7] was 48 min; in [31], 84 min; in [33], 30 min. For the same compound, the figures for the peak concentration (Cmax) in data set [8], in data set [13] and in data set [18] were 8900 ng/mL, 3300 ng/mL and 11000 ng/mL, respectively. For the same compound, the figures for the fCmax in [9], in data set [10] and in [42] were 6 µg/mL, 7.1 µg/mL and 2.3 µg/mL, respectively. Also, the outcome in [11] was Active. Also, the fAUC/MIC is listed as 3.3 in data set [12]; 5.3 in [19]; 3.6 in data set [21]; 2.6 in [23]; 3.6 in data set [24]; 6.6 in data set [25]. Further, the fAUC/MIC in data set [32] amounted to 1.8; in data set [37] it was 6.6; in [38] it was 5.3. The median effective dose (ED50) in [1] is 7 mg/kg/day; in [15], at least 14 mg/kg/day; in data set [16], 20 mg/kg/day; in [3] it was 3.7 mg/kg/day; in data set [22], 5.1 mg/kg/day; in data set [26], 14 mg/kg/day. Further, the ED50 in data set [34] was above 40 mg/kg/day; in [35], 6.4 mg/kg/day; in data set [5] it was 6.3 mg/kg/day; in data set [6] it was 8.5 mg/kg/day. The Tmax in [14] and in data set [27] was at most 7.8 min each time. Further, the results for the apparent clearance CL/F in [17] and in [29] were 10.7 mL/min/kg and 8.67 mL/min/kg, respectively. Moreover, the fAUC worked out at 13000 ng·h/mL in data set [20], 11000 ng·h/mL in [36] and 1400 ng·h/mL in [39]. Further, the values for the AUC(0-t) at 24 h in data set [28], in data set [30] and in [41] were 16000 ng·h/mL, 2100 ng·h/mL and 19000 ng·h/mL, respectively. The clearance in data set [40] was 15.7 mL/min/kg.
